According to article PMC6277767, “Broad and Region-Specific Impacts of the Synthetic Cannabinoid CP 55,940 in Adolescent and Adult Female Mouse Brains” (Frontiers in Molecular Neuroscience, 2018):

Test system: CD1 female mouse brain lipidome
Assay: Brain-region lipid levels (HPLC/MS/MS lipidomics) 2 h after single i.p. 3 mg/kg CP 55,940 vs vehicle
Type: in vivo
Design: N-arachidonoyl phenylalanine level, Mean / N-stearoyl tryptophan level, Mean / N-stearoyl proline level, Mean / N-stearoyl leucine level, Mean / N-stearoyl phenylalanine level, Mean / N-stearoyl serine level, Mean / N-stearoyl methionine level, Mean: unit: moles per gram
Conditions: cortex
Procedure: The Bloomington Institutional Animal Care and Use Committee of Indiana University reviewed and approved the animal procedures. Female mice from the CD1 strain were utilized to match our study examining THC’s effects on the brain lipidome ([Leishman et al., 2018]). Mice were given a single i.p. injection of either 3 mg/kg CP or 1:1:18 cremophor:ethanol:saline vehicle (please refer to the section “3 mg/kg CP Is Relevant for Synthetic Cannabinoid Abuse and Has Stronger Effects on the Female Mouse Brain Lipidome During Adolescence” for a justification of dose and use of female mice). Three different age groups were given injections: PND 35 and PND 50 adolescents, and adult mice (PND 113). At least eight mice in each age group received CP and at least eight received vehicle. Matching the THC study time course ([Leishman et al., 2018]), mice were sacrificed via rapid decapitation 2 h after injection. Brains were immediately removed and flash-frozen in liquid nitrogen, and then stored at -80°C until dissections were performed. Brains were dissected on an ice-cold dissection plate into the following regions: STR, HIPP, CER, THAL, CTX, HYP, MID, and STEM. These abbreviations for these brain areas will be used exclusively when discussing the results generated by these specific dissections. Each dissected area was immediately placed in liquid nitrogen and then stored at -80°C until used for lipid extraction.
Tissue extracts were performed as previously described ([Bradshaw et al., 2006]; [Stuart et al., 2013]; [Raboune et al., 2014]; [Leishman et al., 2016a],[b], [2017], [2018]). First, samples were shock frozen in liquid nitrogen, weighed, and transferred to a centrifuge tube. The mass of the largest sample was multiplied by 50 to determine how many milliliters of HPLC-grade methanol (Fisher, Fair Lawn, NJ, United States) to add. Then, samples were spiked with 500 pmol deuterium-labeled NAGly (d8NAGly; Cayman Chemical, Ann Arbor, MI, United States). Samples were placed on ice in darkness for 2 h then individually homogenized and centrifuged at 19,000 × g for 20 min at 20°C. Supernatants were diluted with HPLC water (purified in house) to make a solution of 75% water, 25% supernatant. Lipids were partially purified on C18 solid phase extraction columns (Agilent, Palo Alto, CA, United States). A series of four elutions with 1.5 mL of 60%, 75%, 85%, and 100% methanol were collected ([Stuart et al., 2013]; [Leishman et al., 2016a],[b], [2018]).
As previously described ([Bradshaw et al., 2006]; [Tan et al., 2006]; [Smoum et al., 2010]; [Stuart et al., 2013]; [Tortoriello et al., 2013]; [Raboune et al., 2014]; [Leishman et al., 2016a],[b], [2017], [2018]), samples were analyzed using an Applied Biosystems API 3000 triple quadrupole mass spectrometer with electrospray ionization (Foster City, CA, United States). Using an Agilent XDB-C18 reversed phase analytical column and optimized mobile phase gradients, 20 μL from each elution were chromatographed. Two Shimadzu 10ADvp pumps (Columbia, MD, United States) provided the pressure for gradient elution. Mobile phase A: 20% methanol, 80% water (v/v) and 1 mM ammonium acetate (Sigma, St. Louis, MO, United States). Mobile phase B: 100% methanol, 1 mM ammonium acetate. Every method run began with 0% mobile phase B, reached 100% mobile phase B flowing at 0.2 mL/min, and gradually returned to 0% mobile phase B.
This screening library will be referred to as the lipidome when discussing data from this study. HPLC/MS/MS data were analyzed using Analyst software (Applied Biosystems) ([Bradshaw et al., 2006]; [Tan et al., 2006]; [Stuart et al., 2013]; [Tortoriello et al., 2013]; [Raboune et al., 2014]; [Leishman et al., 2016a],[b], [2017], [2018]). Chromatograms (Supplementary Figure 3) were generated by determining the retention time of analytes from the analytical column with a [M-1] or [M+1] parent peak and a fragmentation peak corresponding to the programmed values. […]

[1] = PND 50 female mice, 3mg/kg CP 55,940
[2] = WT adult female mice, 3mg/kg CP 55,940

## CCCCCCC(C)(C)c1ccc([C@@H]2C[C@H](O)CC[C@H]2CCCO)c(O)c1 [CP 55,940]
[1]
  N-palmitoyl leucine level, Mean: 1.98E-12
  N-palmitoyl methionine level, Mean: 1.01E-12
  N-palmitoyl phenylalanine level, Mean: 1.98E-12
  N-palmitoyl proline level, Mean: BDL
  N-palmitoyl serine level, Mean: 4.17E-11
  N-palmitoyl tryptophan level, Mean: BDL
  N-palmitoyl tyrosine level, Mean: 6.65E-13
  N-palmitoyl valine level, Mean: 3.13E-13
  N-stearoyl GABA level, Mean: 1.55E-11
  N-stearoyl alanine level, Mean: 3.67E-12
  N-stearoyl ethanolamine level, Mean: 2.8E-12
  N-stearoyl glycine level, Mean: 1.45E-12
  N-stearoyl leucine level, Mean: 2.21E-12
  N-stearoyl methionine level, Mean: 1.13E-12
  N-stearoyl phenylalanine level, Mean: 2.99E-12
  N-stearoyl proline level, Mean: BDL
  N-stearoyl serine level, Mean: 3.75E-11
  N-stearoyl tryptophan level, Mean: BDL
  N-stearoyl tyrosine level, Mean: 2.52E-13
  Oleic acid level, Mean: 1.6E-09
  PGE2 level, Mean: 1.58E-10
  PhosphoLEA level, Mean: 3.22E-12
  THC level, Mean: BDL
[2]
  N-arachidonoyl GABA level, Mean: 1.28E-11
  N-arachidonoyl alanine level, Mean: 1.09E-12
  N-arachidonoyl ethanolamine level, Mean: 2.77E-11
  N-arachidonoyl glycine level, Mean: 1.07E-12
  N-arachidonoyl phenylalanine level, Mean: 5.77E-14
  N-docosahexaenoyl GABA level, Mean: 6.57E-12
  N-docosahexaenoyl ethanolamine level, Mean: 2.54E-11
  N-docosahexaenoyl glycine level, Mean: 8.32E-14
  N-docosahexaenoyl leucine level, Mean: 8.03E-13
  N-docosahexaenoyl phenylalanine level, Mean: 3E-14
  N-linoleoyl GABA level, Mean: 4.08E-12
  N-linoleoyl ethanolamine level, Mean: 2.93E-11
  N-linoleoyl glycine level, Mean: 5.03E-14
  N-linoleoyl leucine level, Mean: 9.31E-14
  N-oleoyl GABA level, Mean: 9.86E-12
  N-oleoyl alanine level, Mean: 2.22E-12
  N-oleoyl ethanolamine level, Mean: 1.38E-10
  N-oleoyl glycine level, Mean: 2.9E-13
  N-oleoyl leucine level, Mean: 7.57E-13
  N-oleoyl phenylalanine level, Mean: 3.2E-13
  N-palmitoyl GABA level, Mean: 1.4E-11
  N-palmitoyl alanine level, Mean: 2.07E-12
  N-palmitoyl ethanolamine level, Mean: 3.62E-11
  N-palmitoyl glycine level, Mean: 9.43E-13
  N-palmitoyl leucine level, Mean: 1.16E-12
  N-palmitoyl methionine level, Mean: 2.58E-12
  N-palmitoyl phenylalanine level, Mean: 2.56E-13
  N-stearoyl GABA level, Mean: 1.05E-11
  N-stearoyl alanine level, Mean: 3.38E-12
  N-stearoyl ethanolamine level, Mean: 3.18E-11
  N-stearoyl glycine level, Mean: 1.95E-12
  N-stearoyl leucine level, Mean: 1.32E-12
  N-stearoyl methionine level, Mean: 3.92E-13
  N-stearoyl phenylalanine level, Mean: 1.71E-13
PND 35, 3 mg/kg CP 55,940
  2-palmitoyl glycerol Direction (rel to Veh): ↑
  2-palmitoyl glycerol, Magnitude (x Veh level): 1.57 x Veh level
  6-ketoPGF1α Direction (rel to Veh): ↓
  6-ketoPGF1α Magnitude (x Veh level): 0.68 x Veh level
  N-arachidonoyl GABA Direction (rel to Veh): ↓
  N-arachidonoyl GABA Magnitude (x Veh level): 0.83 x Veh level
  N-arachidonoyl alanine Direction (rel to Veh): ↓
  N-arachidonoyl alanine Magnitude (x Veh level): 0.77 x Veh level
  N-arachidonoyl glycine Direction (rel to Veh): ↓
  N-arachidonoyl glycine Magnitude (x Veh level): 0.75 x Veh level
  N-arachidonoyl methionine Direction (rel to Veh): ↓
  N-arachidonoyl methionine, Magnitude (x Veh level): 0.60 x Veh level
  N-arachidonoyl phenylalanine Direction (rel to Veh): ↓
  N-arachidonoyl phenylalanine, Magnitude (x Veh level): 0.76 x Veh level
  N-arachidonoyl serine Direction (rel to Veh): ↓
  N-arachidonoyl serine Magnitude (x Veh level): 0.75 x Veh level
  N-arachidonoyl taurine Direction (rel to Veh): ↓
  N-arachidonoyl taurine Magnitude (x Veh level): 0.83 x Veh level
  N-arachidonoyl tyrosine Direction (rel to Veh): ↓
  N-arachidonoyl tyrosine, Magnitude (x Veh level): 0.73 x Veh level
  N-docosahexaenoyl GABA Direction (rel to Veh): ↓
  N-docosahexaenoyl GABA Magnitude (x Veh level): 0.88 x Veh level
  N-docosahexaenoyl glycine Direction (rel to Veh): ↓
  N-docosahexaenoyl glycine Magnitude (x Veh level): 0.78 x Veh level
  N-docosahexaenoyl leucine Direction (rel to Veh): ↑
  N-docosahexaenoyl leucine Magnitude (x Veh level): 1.52 x Veh level
  N-docosahexaenoyl serine Direction (rel to Veh): ↓
  N-docosahexaenoyl serine Magnitude (x Veh level): 0.62 x Veh level
  N-docosahexaenoyl valine Direction (rel to Veh): ↑
  N-docosahexaenoyl valine Magnitude (x Veh level): 1.37 x Veh level
  N-linoleoyl GABA Direction (rel to Veh): ↓
  N-linoleoyl GABA Magnitude (x Veh level): 0.88 x Veh level
  N-linoleoyl glycine Direction (rel to Veh): ↓
  N-linoleoyl glycine Magnitude (x Veh level): 0.69 x Veh level
  N-oleoyl GABA Direction (rel to Veh): ↓
  N-oleoyl GABA Magnitude (x Veh level): 0.81 x Veh level
  N-oleoyl alanine Direction (rel to Veh): ↓
  N-oleoyl alanine Magnitude (x Veh level): 0.75 x Veh level
  N-oleoyl glycine Direction (rel to Veh): ↓
  N-oleoyl glycine Magnitude (x Veh level): 0.89 x Veh level
  N-oleoyl leucine Direction (rel to Veh): ↑
  N-oleoyl leucine Magnitude (x Veh level): 1.22 x Veh level
  N-oleoyl methionine Direction (rel to Veh): ↓
  N-oleoyl methionine, Magnitude (x Veh level): 0.67 x Veh level
  N-oleoyl valine Direction (rel to Veh): ↑
